Reference: article PMC10975543, “Redox Reactivity of Nonsymbiotic Phytoglobins towards Nitrite” (Molecules, 2024)

Target: T1, AtHb3 (Arabidopsis thaliana, UniProt Q67XG0)
T1 construct: gene GLB3; recombinant in E. coli BL21(DE3), N-terminal 8xHis-MBP tag, TEV cleaved; class 3 truncated Hb; ferric (met) heme form
T1 sequence (Q67XG0 1-175): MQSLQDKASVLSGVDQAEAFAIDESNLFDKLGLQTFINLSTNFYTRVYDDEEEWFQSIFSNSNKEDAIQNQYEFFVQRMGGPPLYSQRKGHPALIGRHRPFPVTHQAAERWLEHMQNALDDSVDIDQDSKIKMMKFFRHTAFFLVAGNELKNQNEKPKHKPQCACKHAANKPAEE
Assay: UV-vis titration of the Soret band at […] nm
Format: binding

In the case of O=NO [nitrite], the Kd is reported as 1.5 ± 0.5 mM.
